Measured values: patent US7364759B2, “Skin whitening compositions containing black cohosh extract” (Access Business Group International LLC, priority 2003, dated 2008)

Test system: mouse derived immortalized melanocyte cells (M3)
Test: Suppression of melanogenesis in vitro (modified Dooley assay)
Format: cell-based
Conditions: treatment dose 0.100%; treated days 1, 3, 5; melanin extracted day 6, OD 405 nm

In the case of O=C1O[C@H]([C@@H](O)CO)C(O)=C1O [Ascorbic Acid], the “% Control Melanin” value is reported as 51%.
